Patent US8476197B2, “Aminopropenoates as fungicides” (priority 2009, dated 2013)
Marks after values point to notes of the source that are not given here.

Details: pH 2.3

Row | Log P | Structure (SMILES)
1 | 2.92 | CCOC(=O)C(C#N)=C(NC(C)c1nccs1)c1cccnc1OCC (racemic) [Compound 148]
2 | 4.02^[c]; 4.02^[b] | CC(C)C(C)NC(=O)C(C#N)=C(NC(C)C(C)C)c1cccnc1Cl (stereo not shown) [Compound 1283]
3 | 2.63 | COC(=O)C(C#N)=C(NCC1CCCS1)c1cccnc1Cl (stereo not shown) [Compound 20]
4 | 4.15 | CSc1ccccc1NC(=C(C#N)C(=O)OCC(C)C)c1cccnc1Cl [Compound 347]
5 | 3.32^[c]; 3.32^[b] | C=CCOC(=O)C(C#N)=C(Nc1ccccc1SC)c1cccnc1Cl [Compound 1602]
6 | 2.18 | C#CCNC(=C(C#N)C(=O)OCC)c1cccnc1Cl [Compound 1044]
7 | 2.28 | CC(C)C(C)NC(=C(C#N)C(=O)NC1CS(=O)(=O)C1)c1cccnc1Cl (stereo not shown) [Compound 1469]

The next lines start with the compound.

Row | Structure (SMILES) | Log P
8 | COC(=O)C(C#N)=C(NC1CCSC1)c1cccnc1Cl (stereo not shown) [Compound 22] | 2.4
9 | C=Cc1ncccc1C(NC(C)C(C)C)=C(C#N)C(=O)OCC (stereo not shown) [Compound 976] | 3.24

Same assay, conditions: pH 2.7

Row | Log P | Structure (SMILES)
10 | 4.09^[a] | CCOC(=O)C(C#N)=C(Nc1cccc(Cl)c1)c1sccc1Br [Compound 459]
11 | 3.06^[a] | CCOC(=O)C(C#N)=C(NC(C)COC)c1ccnc(Cl)c1Cl (stereo not shown) [Compound 1392]
12 | 3.02^[a] | CCC(NC(=C(C#N)C(=O)OC)c1cccnc1Cl)c1ccccc1 (stereo not shown) [Compound 405]
13 | 3.11^[a] | CCOC(=O)C(C#N)=C(Nc1ccc2ncsc2c1)c1ccsc1Br [Compound 533]
14 | 3.13^[a] | CCOC(=O)C(C#N)=C(NCc1ccc2ccccc2n1)c1cccnc1Cl [Compound 323]
15 | 2.18^[a] | CCNC(=O)C(C#N)=C(NC(C)c1nccs1)c1ccnc(C)c1Cl (stereo not shown) [Compound 1306]
16 | 2.64^[a] | CCNC(=O)C(C#N)=C(NC(C)C(C)C)c1cccnc1C#N (stereo not shown) [Compound 1199]
17 | 2.8^[a] | CCOC(=O)C(C#N)=C(NC(C)C(C)OC)c1cccnc1Cl (stereo not shown) [Compound 1527]
18 | 2.51^[a] | CCOC(=O)C(C#N)=C(NC(CC)CC#N)c1cccnc1Cl (stereo not shown) [Compound 1359]
19 | 3.29^[a] | CCOC(=O)C(C#N)=C(NC(C)c1nccs1)c1nsc(Cl)c1Cl (racemic) [Compound 55]
20 | 3.53^[a] | CCOC(=O)C(C#N)=C(NCCOc1ccccc1Br)c1cccnc1Cl [Compound 1377]
21 | 2.08^[a] | CCOC(=O)C(C#N)=C(NC(C)C(=O)NC)c1sccc1Cl (stereo not shown) [Compound 645]
22 | 3.04^[a] | CCOC(=O)C(C#N)=C(NCc1ccc(F)cn1)c1ccsc1Br [Compound 251]
23 | 3.8^[a] | CCOC(=O)C(C#N)=C(NC(C)Cc1c[nH]c2ccccc12)c1ccsc1Br (stereo not shown) [Compound 106]
24 | 4^[a] | COC(=O)C(C#N)=C(NC(C)c1ccc(C(C)C)cc1)c1cccnc1Cl (stereo not shown) [Compound 379]
25 | 3.35^[a] | CCOC(=O)C(C#N)=C(NC1(c2ccccc2Cl)CC1)c1cn(C)nc1C(F)F [Compound 1362]

Row | Log P | Structure (SMILES)
26 | 2.4^[a] | CCOC(=O)C(C#N)=C(NC1CCc2cccnc21)c1cccnc1Cl (stereo not shown) [Compound 1436]
27 | 2.68^[a] | CCOC(=O)C(C#N)=C(NCc1nccs1)c1ccsc1I [Compound 161]
28 | 3.53^[a] | CCOC(=O)C(C#N)=C(NCc1nc2ccccc2s1)c1sccc1Br [Compound 170]
29 | 2.68^[a] | CCOC(=O)C(C#N)=C(NCc1nccs1)c1cnc(Cl)cc1Cl [Compound 227]
30 | 3.96^[a] | CCOC(=O)C(C#N)=C(Nc1cccc(SC)c1)c1sccc1Br [Compound 491]
31 | 2.5^[a] | CCOC(=O)C(C#N)=C(NC(C)c1ccccn1)c1ccnc(C)c1F (stereo not shown) [Compound 1320]
32 | 2.5^[a] | CCOC(=O)C(C#N)=C(NC(C)COC)c1ccnc2ccccc12 (stereo not shown) [Compound 1499]
33 | 3.73^[a] | COC(=O)C(C#N)=C(NC(C)c1ccc(Cl)cc1Cl)c1cccnc1Cl (stereo not shown) [Compound 374]
34 | 3.55^[a] | CCOC(=O)C(C#N)=C(NCc1nc2ccccc2s1)c1ccsc1Br [Compound 248]
35 | 3.87^[a] | CCSC(=O)C(C#N)=C(NC(C)C(C)C)c1cccnc1Cl (stereo not shown) [Compound 1474]
36 | 4.29^[a] | CCOC(=O)C(C#N)=C(NC(C)C(C)C)c1ncc(C(F)(F)F)cc1Cl (stereo not shown) [Compound 935]
37 | 4.14 | CCOC(=O)C(C#N)=C(Nc1cccc(Cl)c1)c1sccc1C(F)(F)F [Compound 511]
38 | 3.94^[a] | CCOC(=O)C(C#N)=C(NC(C)C(C)C)c1ccnc(Br)c1Cl (stereo not shown) [Compound 1209]
39 | 4.11^[a] | CCOC(=O)C(C#N)=C(Nc1ccc(Cl)cc1)c1ccsc1Br [Compound 534]
40 | 1.2^[a] | CCOC(=O)C(C#N)=C(NC(C)CN1CCCCC1)c1cccnc1Cl (racemic) [Compound 273]

Continued, compound first:

Row | Structure (SMILES) | Log P
41 | COC(=O)C(C#N)=C(NC1(c2c(F)cccc2F)CC1)c1cccnc1Cl [Compound 380] | 2.8^[a]
42 | COC(=O)C(C#N)=C(NC(C)c1cc(Cl)cc(Cl)c1)c1cccnc1Cl (stereo not shown) [Compound 388] | 3.68^[a]
43 | CCOC(=O)C(C#N)=C(NC(C)C#N)c1cn(C)nc1C(F)F (racemic) [Compound 1254] | 2.15^[a]
44 | CCOC(=O)C(C#N)=C(NC1(c2c(F)cccc2F)CC1)c1cn(C)nc1C(F)(F)F [Compound 530] | 3.48^[a]
45 | CCOC(=O)C(C#N)=C(NC(C)c1nccs1)c1cc(Cl)ncc1Cl (racemic) [Compound 252] | 3.15^[a]
46 | CCOC(=O)C(C#N)=C(NCCCCO)c1cccnc1Cl [Compound 1184] | 1.75^[a]
47 | CCOC(=O)C(C#N)=C(NC(C)c1ccncn1)c1cccnc1Cl (stereo not shown) [Compound 330] | 2.01^[a]
48 | COC(=O)C(C#N)=C(NC1CCCCNC1=O)c1cccnc1Cl (stereo not shown) [Compound 123] | 1.57^[a]
49 | CCOC(=O)C(C#N)=C(NC1CCC(OCC)CC1)c1cn(C)nc1C(F)F (stereo not shown) [Compound 1337] | 3.08^[a]
50 | CCOC(=O)C(C#N)=C(NC(C)COCc1ccc(C(F)(F)F)cc1)c1cn(C)nc1C(F)F (stereo not shown) [Compound 1233] | 3.99^[a]
51 | CCOC(=O)C(C#N)=C(NC(C)CN(C)C)c1c(C)nn(C)c1F (racemic) [Compound 584] | 0.96^[a]
52 | COC(=O)C(C#N)=C(NC(C)C1CCCO1)c1sc(C)nc1C(F)(F)F (mixture of isomers) [Compound 178] | 1.97^[a]
53 | CCOC(=O)C(C#N)=C(NC1(CC2CC2)CC1)c1cccnc1Cl [Compound 1642] | 3.53^[a]
54 | CCOC(=O)C(C#N)=C(NC(C)COCc1ccccc1Cl)c1cccnc1Cl (stereo not shown) [Compound 1172] | 4.06^[a]
55 | CCOC(=O)C(C#N)=C(NC1CCc2ccccc21)c1cn(C)nc1C(F)F (stereo not shown) [Compound 1079] | 3.42^[a]
56 | CCOC(=O)C(C#N)=C(NC(C)C(F)(F)F)c1sc(Cl)nc1Cl (racemic) [Compound 809] | 3.75^[a]
57 | C=CCCCC(C=C)NC(=C(C#N)C(=O)OCC)c1ncc(C(F)(F)F)cc1Cl (racemic) [Compound 1015] | 4.82^[a]
58 | CCOC(=O)C(C#N)=C(NC(C)C(N)=O)c1sccc1C(F)(F)F (stereo not shown) [Compound 610] | 2.07^[a]
59 | CCOC(=O)C(C#N)=C(NC1CCCCC1C)c1cn(C)nc1C(F)F (stereo not shown) [Compound 1122] | 3.6^[a]
60 | C#CC(C)NC(=C(C#N)C(=O)OCC)c1cccnc1Cl (stereo not shown) [Compound 1181] | 2.66^[a]

Row | Structure (SMILES) | Log P
61 | CCOC(=O)C(C#N)=C(NC(C)c1nc(C)cs1)c1sccc1C(F)(F)F (racemic) [Compound 174] | 3.58^[a]
62 | C#CC(C)(C)NC(=C(C#N)C(=O)OCC)c1sccc1Br [Compound 1027] | 3.42^[a]
63 | C=CCOC(=O)C(C#N)=C(NCc1nccs1)c1cn(C)nc1C(F)F [Compound 306] | 2.25^[a]
64 | CCOC(=O)C(C#N)=C(NC(C)(C)C=C(Cl)Cl)c1sccc1Br [Compound 1105] | 4.21^[a]
65 | CCOC(=O)C(C#N)=C(Nc1cc(C(F)(F)F)ccc1SC)c1cn(C)nc1C(F)F [Compound 1426] | 3.67^[a]
66 | CCOC(=O)C(C#N)=C(NC(C)C(C)C)c1c(C(F)F)nn(C)c1F (racemic) [Compound 1000] | 3.53^[a]
67 | CCOC(=O)C(C#N)=C(NC(C)c1nccs1)c1ccncc1Br (mixture of isomers) [Compound 297] | 2.4^[a]
68 | CCOC(=O)C(C#N)=C(NC(C)C1CCCO1)c1cc(C)oc1C (stereo not shown) [Compound 118] | 3.27^[a]
69 | CCOC(=O)C(C#N)=C(NC1CC1C(F)(F)F)c1cn(C)nc1C(F)F (stereo not shown) [Compound 1147] | 2.75^[a]
70 | C#CCC(C#N)NC(=C(C#N)C(=O)OCC)c1cn(C)nc1C(F)F (stereo not shown) [Compound 1220] | 2.33^[a]
71 | CCOC(=O)CC(C)NC(=C(C#N)C(=O)OCC)c1cn(C)nc1C(F)F (stereo not shown) [Compound 1139] | 2.66^[a]
72 | CCOC(=O)C(C#N)=C(NC1CCC1)c1cn(C)nc1C(F)F [Compound 1123] | 2.73^[a]
73 | CCOC(=O)C(C#N)=C(NC(C)C(C)C)c1nsc(Cl)c1Cl (stereo not shown) [Compound 937] | 4.39^[a]
74 | CCOC(=O)C(C#N)=C(NC(C)CN)c1sccc1Br (stereo not shown) [Compound 707] | 1.1^[a]
75 | CCOC(=O)C(C#N)=C(NC1(c2ccccn2)CC1)c1cccnc1Cl [Compound 284] | 2.56^[a]
76 | C=CC(COCc1ccccc1)NC(=C(C#N)C(=O)OCC)c1cn(C)nc1C(F)F (stereo not shown) [Compound 691] | 3.51^[a]
77 | CCOC(=O)C(C#N)=C(NC(C)C(=O)NC)c1cn(C)nc1C(Cl)Cl (stereo not shown) [Compound 1573] | 3.9^[a]
78 | CCOC(=O)C(C#N)=C(Nc1ccccc1SCC)c1cn(C)nc1C(F)F [Compound 1228] | 3.46^[a]
79 | CCOC(=O)C(C#N)=C(NC(C)CC)c1cccnc1Cl (stereo not shown) [Compound 1174] | 3^[a]

Same assay, conditions: pH 7.5

Row | Log P | Structure (SMILES)
80 | 2.89 | CCOC(=O)C(C#N)=C(NC(C)c1nccs1)c1cccnc1OCC (racemic) [Compound 148]
81 | 2.03 | COC(=O)C(C#N)=C(NCC1CCCO1)c1cccnc1Cl (stereo not shown) [Compound 16]
82 | 2.4 | CCOCCOC(=O)C(C#N)=C(NC(C)c1nccs1)c1cccnc1Cl (stereo not shown) [Compound 12]
83 | 4.02^[c]; 4.02^[b] | CC(C)C(C)NC(=O)C(C#N)=C(NC(C)C(C)C)c1cccnc1Cl (stereo not shown) [Compound 1283]
84 | 2.38 | COC(=O)C(C#N)=C(NC(C)CSC)c1cccnc1Cl (racemic) [Compound 576]
85 | 2.47 | COC(=O)C(C#N)=C(NCC1CCCS1)c1cccnc1Cl (stereo not shown) [Compound 20]
86 | 3.94 | CSc1ccccc1NC(=C(C#N)C(=O)OCC(C)C)c1cccnc1Cl [Compound 347]
87 | 3.32^[c]; 3.32^[b] | C=CCOC(=O)C(C#N)=C(Nc1ccccc1SC)c1cccnc1Cl [Compound 1602]
88 | 2.05 | C#CCNC(=C(C#N)C(=O)OCC)c1cccnc1Cl [Compound 1044]
89 | 2.29 | CC(C)C(C)NC(=C(C#N)C(=O)NC1CS(=O)(=O)C1)c1cccnc1Cl (stereo not shown) [Compound 1469]

The next lines start with the compound.

Row | Structure (SMILES) | Log P
90 | COC(=O)C(C#N)=C(NC1CCSC1)c1cccnc1Cl (stereo not shown) [Compound 22] | 2.23
91 | C=Cc1ncccc1C(NC(C)C(C)C)=C(C#N)C(=O)OCC (stereo not shown) [Compound 976] | 3.26
